Assay results from PMC5106290 (Bioorganic & medicinal chemistry, 2014).
Like-named read-outs stand apart in the source and are kept apart here.

Columns and labels:
[1] = tested on: L. i. chagasi; type: in vivo, Leishmania infantum chagasi; details: infected BALB/c mice
[2] = tested on: RAW 264.7 cells; type: cell-based, murine; details: Table 1 and text, 48 h, MTT
[3] = tested on: promastigote of Leishmania amazonensis; details: ref Medeiros et al. 21; cited from earlier work
[4] = Glucantime 80 mg/Kg intra muscular once a day for 30 days
[5] = 100 mg/kg IP once a day for 30 days

Molecule: antimoniate N-methyl glucamine [Glucantime, reference compound]
- Amount of amastigotes seen in spleen stain [1, 4]: only a few amastigotes
- Presence of amastigotes in spleen (immunohistochemistry, qualitative) [1, 4]: visible

Molecule: CC(=O)Oc1cc(C)ccc1C(C)C [Acetyl-Thymol, O-acetyl-thymol]
- Amount of amastigotes seen in spleen stain [1, 5]: regular amount of parasites
- Toxicity % RAW 264.7 cells survival at 100 μg/mL (±SD) [2]: not toxic

Molecule: Cc1ccc(C(C)C)c(O)c1 [Thymol]
- EC50 against promastigote of Leishmania amazonensis [3]: 19.4 µg/mL

Molecule: Cc1ccc(C(C)C)c(OC(=O)c2ccccc2)c1 [Benzoyl-Thymol, O-benzoyl-thymol]
- Presence of amastigotes in spleen (immunohistochemistry, qualitative) [1, 5]: could not be visualized

Molecule: C=CCc1ccc(OC(C)=O)c(OC)c1 [Acetyl-Eugenol, O-acetyl-eugenol]
- Presence of amastigotes in spleen (immunohistochemistry, qualitative) [1, 5]: could not be visualized

Molecule: C=CCc1ccc(OC(=O)c2ccccc2)c(OC)c1 [Benzoyl-Eugenol, O-benzoyl-eugenol]
- Presence of amastigotes in spleen (immunohistochemistry, qualitative) [1, 5]: could not be visualized
